Reference: US20240225915A1, “COMPOSITIONS FOR FIGHTING MALODORS” (SYMRISE AG, priority 2021, published 2024)

Assay: Evaluation of malodor neutralization: sniffer box evaluation by 12 expert panelists
Details: arithmetic mean of panelist ratings; line scale from no odor (0) to strongest imaginable (10), moderate (5) = unperfumed malodor reference; 1 g water added to each sample
Procedure: The object of the following experiments has been the evaluation of performance against feminine hygiene malodor out of sniffer boxes. For this purpose 12 expert panelists evaluated the samples from sniffer boxes. The malodor was placed on different cotton balls and put into an aroma-tight air bag with a volume of […] together with the raw materials placed in a petri dish. Perfume- and malodor intensities were evaluated on a continuous line scale with ten labels ranging from “no odor” (0) to “strongest imaginable” (10) odor with “moderate” (5) being the unperfumed malodor reference sample. Note that panelists only see the verbal anchors not the numbers (0-10) while rating. Results are arithmetic means of the individual panelist's ratings. Subsequently, the data obtained from the olfactory tests were evaluated statistically by a Friedmann-Test for overall difference between the samples followed by a pairwise comparison to identify significant differences among individual samples.

Going from CC1CCC(C(C)C)C(OC(=O)C(C)O)C1 (stereo not drawn) [C3, menthyl lactate] to CC(=O)OC1CC(C)CCC1C(C)C (stereo not drawn) [c2, menthyl acetate], the “Malodor (malodor intensity)” value rises from 4.3 to 4.4.

In the case of CC1CCC(C(C)C)C2(C1)OCC(CO)O2 (stereo not drawn) [C4, menthone glycerin acetal], the “Malodor (malodor intensity)” value is reported as 4.4.
